The record followed here is patent US5399565A, “Pyrazolidinone CCK and gastrin antagonists and pharmaceutical formulations therof” (priority 1993, dated 1995).

Molecules are shown by their SMILES.

The target in one test is T1, brain CCK receptor (Mus musculus, UniProt P56481).
T1 construct: from tissue; host or cells: forebrain membranes of male CF-1 mice
T1 sequence (P56481 1-453): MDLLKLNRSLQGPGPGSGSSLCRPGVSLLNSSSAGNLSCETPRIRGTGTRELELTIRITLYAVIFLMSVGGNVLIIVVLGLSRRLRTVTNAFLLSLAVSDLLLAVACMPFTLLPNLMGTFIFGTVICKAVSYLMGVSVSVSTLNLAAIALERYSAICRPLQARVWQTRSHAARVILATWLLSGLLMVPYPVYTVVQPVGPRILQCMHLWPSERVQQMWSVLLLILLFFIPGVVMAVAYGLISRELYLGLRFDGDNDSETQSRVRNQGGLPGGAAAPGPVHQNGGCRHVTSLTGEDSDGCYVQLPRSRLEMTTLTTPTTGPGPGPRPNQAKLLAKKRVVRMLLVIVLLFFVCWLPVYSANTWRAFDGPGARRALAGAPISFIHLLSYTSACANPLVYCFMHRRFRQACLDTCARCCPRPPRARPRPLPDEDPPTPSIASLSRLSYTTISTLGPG
Put plainly: CCK receptor binding, mouse brain membranes (125I-CCK-8 sulfate). Particulars: for inhibition at 10 µM / inhibition at 1 µM: read-out: Brain Percent Inhibition; for IC50: mouse brain membranes, read-out: Brain IC50. The method, then: Brain CCK receptor binding was performed using mouse brain membranes according to the method of Chang and Lotti (Proc. Natl. Acad. Sci. 83: 4923-4926, 1986). Male CF-1 mice, 23-25 g were sacrificed by cervical dislocation, the forebrain removed and placed in ice cold 50 mM Tris buffer, pH 7.4. The tissue was homogenized in 100 volumes of the Tris buffer with a Brinkman Polytron or Tekmar Tissumizer and then centrifuged at 40,000 g for 10 min. Pellets were resuspended in Tris buffer, centrifuged as above and then resuspended in 100 volumes of assay buffer, pH 6.5 (20 mM N-2-hydroxyethyl-piperazine-N'-2-ethane sulfonic acid (HEPES), 1 mM ethylene glycol his (2-aminoethyl ether-N,N,N',N'-tetraacetic acid) (EGTA), 5 mM MgCl2, 130 mM NaCl, and 0.25 mg/ml bacitracin). The binding assay consisted of 50 μL of compound (or buffer for total binding), 50 μL of ^125 I-CCK-8 sulfate (20 pM) (Amersham IM- 159), 200 μL of assay buffer and 200 μL of homogenate (80-120 μg protein). The samples were incubated at room temperature (25°) for 2 hours, and they were then filtered through GF/B glass fiber filters (soaked in wash buffer for 2 hours before use) using a 48 well Brandel cell harvester designed for receptor binding. The filters were washed twice with 3 ml of 50 mM Tris buffer, pH 7.4, containing 0.01% BSA and then counted for radioactivity in plastic tubes with a Micromedic 10/600 automatic gamma counter.
Compounds were dissolved in dimethyl sulfoxide (DMSO) at a concentration of 10 mM and then further diluted with assay buffer. The concentration of DMSO in the incubation was 0.1% or less and had no effect on the assay at that level. IC-50 values of displacement curves were determined using 7 concentrations of compound and were calculated using the ALLFIT computer program of DeLean, Munson and Rodbard (Am. J. Physiol. 235: E97-E102, 1978). Non-specific binding was determined as the displacement of the radioligand by 100 nM CCK-8 sulfate.

Test [1] has as its target T2, peripheral type CCK receptors in rat pancreas (Rattus norvegicus, UniProt P30551).
T2 construct: Pancreas was obtained from male Sprague-Dawley rats; from tissue; host or cells: pancreas membranes of male Sprague-Dawley rats
T2 sequence (P30551 1-444): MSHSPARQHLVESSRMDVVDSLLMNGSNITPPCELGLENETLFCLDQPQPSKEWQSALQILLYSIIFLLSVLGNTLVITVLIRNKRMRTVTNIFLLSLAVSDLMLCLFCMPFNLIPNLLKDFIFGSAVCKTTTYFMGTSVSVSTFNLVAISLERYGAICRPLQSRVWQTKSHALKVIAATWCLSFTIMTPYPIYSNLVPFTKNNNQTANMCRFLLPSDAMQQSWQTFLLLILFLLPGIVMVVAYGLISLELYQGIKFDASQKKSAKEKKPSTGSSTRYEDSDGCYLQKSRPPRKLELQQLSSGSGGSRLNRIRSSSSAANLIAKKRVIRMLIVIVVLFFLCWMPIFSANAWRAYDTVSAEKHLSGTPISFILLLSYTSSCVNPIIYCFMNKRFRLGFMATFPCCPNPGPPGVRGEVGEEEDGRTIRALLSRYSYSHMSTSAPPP
Put plainly: Binding to peripheral type CCK receptors in rat pancreas (3H-L-364,718). The note with it: for inhibition at 10 µM: read-out: Pancreas Percent Inhibition; for IC50: rat pancreas. As for the experimental part:
Binding to peripheral type CCK receptors in rat pancreas was done according to the method of Chang et al. (Mol. Pharmacol. 30: 212-217, 1986) using ^3 H-L364, 718. Pancreas was obtained from male Sprague-Dawley rats, 150-200 g, after decapitation, and dissected free from adipose and connective tissue. The tissue was homogenized in 30 volumes of 50 mM Tris buffer, pH 7.4 and centrifuged at 40,000 g for 10 min. The tissue pellet was washed by resuspension and centrifugation as described above. The final pellet was suspended in 500 volumes of assay buffer (50 mM Tris buffer, pH 7.4, 5 mM MgCl2, 0.14 mg/ml bacitracin, and 5 mM dithiothreitol) to give a protein concentration of 30-60 μg/200 μl . Reagent volumes for the assay were the same as those used for CCK binding to brain membranes. Tritium labeled L-364,718 (Dupont NEN, NET-971) was used as the ligand at a concentration of 0.4-0.6 nM. The samples were incubated 1 hour at room temperature and then filtered as described for the CCK-brain receptor. Scintillation cocktail was added to the filters which were counted for radioactivity using a Micromedic Taurus automatic liquid scintillation counter.
Compound samples were prepared and IC-50 values were determined as described for the CCK-brain experiments. Non-specific binding was that amount left bound to the filters after adding 100 nM L-364,718.

The term inhibition denotes the percentage by which the read-out fell short of the control. On to `O=C1NN(C(=S)Nc2cccc(C(F)(F)F)c2)[C@H](c2ccccc2)[C@H]1c1ccccc1` (relative stereo) [Example 61], for which the inhibition at 10 µM at brain CCK receptor turned out to be 56%; in test [1] it was 78%.
The IC50 is the concentration at which inhibition is half-maximal. Regarding `COc1ccc(C2C(=O)NN(C(=O)Nc3ccc(Br)cc3)C2c2ccccc2)cc1` (stereo not drawn) [Example 128], the IC50 on brain CCK receptor came out at 490 nM. Besides, the inhibition at 10 µM in test [1] is 39%.
As for `O=C1NN(c2nc3c(Cl)c(Cl)ccc3s2)[C@@H](c2ccccc2)[C@@H]1c1ccccc1` (relative stereo) [Example 86], the inhibition at 10 µM in test [1] came to 58%.
Turning to `O=C(O)CN1C(=O)[C@@H](c2ccccc2)[C@H](c2ccccc2)N1C(=O)Nc1ccc(Br)cc1` (relative stereo) [Example 12 (N--), 1-[(4-Bromophenyl)aminocarbonyl]-2-carboxymethyl-4,5-diphenyl-3-pyrazolidinone], the IC50 on brain CCK receptor was determined as 1900 nM. Besides, the inhibition at 10 µM in test [1] came to 55%.
Take `CN(C(=O)N1NC(=O)[C@@H](c2ccccc2)[C@@H]1c1ccccc1)c1ccc(Cl)cc1` (relative stereo) [Example 19]: the inhibition at 10 µM is 68% on brain CCK receptor and 36% in test [1].
On to `O=C1NN(C(=O)Nc2ccc(C3CCCCC3)cc2)[C@@H](c2ccccc2)[C@@H]1c1ccccc1` (relative stereo) [Example 31], for which the inhibition at 1 µM at brain CCK receptor came to 54%. Also, the inhibition at 10 µM in test [1] worked out at 71%.
For the molecule `O=C1NN(C(=O)Nc2ccc(Oc3ccccc3)cc2)[C@@H](c2ccccc2)[C@@H]1c1ccccc1` (relative stereo) [Example 37], on brain CCK receptor, the inhibition at 1 µM worked out at 82%. The inhibition at 10 µM in test [1] turned out to be 75%.
Consider `O=C1NN(C(=O)NCCc2ccc(Cl)cc2)[C@@H](c2ccccc2)[C@@H]1c1ccccc1` (relative stereo) [Example 107], for which the inhibition at 10 µM on brain CCK receptor was found to be 86%; in test [1], 61%.
As for `O=C1NN(C(=O)Nc2ccc([N+](=O)[O-])cc2)[C@@H](c2ccccc2)[C@@H]1c1ccccc1` (relative stereo) [Example 24], the IC50 at brain CCK receptor was found to be 150 nM. For the same molecule, in test [1], the inhibition at 10 µM is 45%.
For the molecule `O=C1NN(C(=O)Nc2ccc3c(c2)OCO3)[C@H](c2ccccc2)[C@H]1c1ccccc1` (relative stereo) [Example 52], on brain CCK receptor, the inhibition at 1 µM came to 60%. Further, the inhibition at 10 µM in test [1] was 21%.
Consider `CCOc1ccc(NC(=O)N2NC(=O)[C@@H](c3ccccc3)[C@@H]2c2ccccc2)cc1` (relative stereo) [Example 34], for which the concentration for half-maximal inhibition (IC50) at brain CCK receptor came out at 1500 nM. Also, the inhibition at 10 µM in test [1] stood at 12%.
On to `CC(NC(=O)N1NC(=O)[C@@H](c2ccccc2)[C@@H]1c1ccccc1)c1ccc(Br)cc1` (relative stereo) [Example 103], for which the IC50 on brain CCK receptor was 870 nM. Moreover, in test [1], the inhibition at 10 µM was determined as 78%.
Taken in the same sequence, the figures for `Cc1ccc(NC(=O)N2NC(=O)[C@@H](c3ccccc3)[C@@H]2c2ccccc2)cc1` (relative stereo) [Example 25] were 210 nM and 14%.
Taken in the same sequence, the figures for `CCCc1ccc(NC(=O)N2NC(=O)[C@@H](c3ccccc3)[C@@H]2c2ccccc2)cc1` (relative stereo) [Example 27] were 230 nM and 60%.
`O=C1NN(C(=O)Nc2ccncc2)[C@@H](c2ccccc2)[C@@H]1c1ccccc1` (relative stereo) [Example 89]: the inhibition at 10 µM was 34% on brain CCK receptor and 21% in test [1].
For `C[C@H](NC(=O)N1NC(=O)C(c2ccccc2)C1c1ccccc1)c1ccccc1` (stereo partly drawn) [Example 101], the IC50 at brain CCK receptor is 1300 nM. The inhibition at 10 µM in test [1] came out at 7%.
The molecule `O=C1NN(C(=S)Nc2cnc3ccccc3c2)[C@@H](c2ccccc2)[C@@H]1c1ccccc1` (relative stereo) [Example 137] registered an IC50 in test [1] of 32 nM.
`O=C1NN(C(=O)Nc2ccc(Br)cc2)[C@@H](c2ccccc2)[C@@H]1c1ccccc1` (single isomer, unassigned) [Example 140, (-)-trans-1-[(4-Bromophenyl)aminocarbonyl]-4,5-diphenyl-3-pyrazolidinone]: the IC50 at brain CCK receptor came out at 370 nM.
The molecule `O=C1NN(C(=S)NCc2ccc(Cl)c(Cl)c2)[C@@H](c2ccccc2)[C@@H]1c1ccccc1` (relative stereo) [Example 138] registered an IC50 in test [1] of 69 nM.
With `O=C1NN(C(=S)Nc2ccc(Cl)c(C(F)(F)F)c2)[C@@H](c2ccccc2)[C@@H]1c1ccccc1` (single isomer, unassigned) [Example 142, (+)-trans-1-[(4-Chloro-3-trifluoromethylphenyl)-aminothiocarbonyl]-4,5-diphenyl-3-pyrazolidinone], the IC50 in test [1] amounted to 17 nM.
Consider `COC1=NN(C(=O)Nc2ccc(C(F)(F)F)cc2)[C@@H](c2ccccc2)[C@@H]1c1ccccc1` (relative stereo) [Example 13, 1-[(4-Trifluoromethylphenyl)aminocarbonyl]-3-methoxy-4,5diphenyl-2-pyrazoline], for which the inhibition at 10 µM at brain CCK receptor was 67%.
As for `CCCCNC(=O)N1NC(=O)[C@H](c2ccccc2)[C@H]1c1ccccc1` (relative stereo) [Example 94], on brain CCK receptor, the inhibition at 10 µM is 50%.
Turning to `CN1C(=O)[C@H](c2ccccc2)[C@@H](c2ccccc2)N1C(=O)Nc1ccc(C(F)(F)F)cc1` (relative stereo) [Example 67], the inhibition at 10 µM on brain CCK receptor came out at 46%.
As to `O=C1NN(C(=O)Nc2ccc3ccccc3c2)[C@@H](c2ccccc2)[C@@H]1c1ccccc1` (relative stereo) [Example 91], the inhibition at 10 µM in test [1] is 94%.
On to `CN(Cc1ccccc1)C(=O)N1NC(=O)[C@@H](c2ccccc2)[C@@H]1c1ccccc1` (relative stereo) [Example 97], for which the inhibition at 10 µM at brain CCK receptor is 42%.
With `O=C1NN(C(=S)Nc2ccc(Cl)c(C(F)(F)F)c2)[C@@H](c2ccccc2)[C@@H]1c1ccccc1` (single isomer, unassigned) [Example 143, (-)-trans-1-[(4-Chloro-3-trifluoromethylphenyl)-aminothiocarbonyl]-4,5-diphenyl-3-pyrazolidinone], the IC50 in test [1] came out at 810 nM.
`O=C(Nc1cccc(C(F)(F)F)c1)N1N[C@@H](c2ccccc2)[C@H](c2ccccc2)C1=O` (relative stereo) [Example 82]: the inhibition at 10 µM on brain CCK receptor was determined as 23%.
